From patent US20040014144A1, “Method of screening for substances acting on MSK1” (Leo Pharmaceutical Products Ltd. A/S, priority 1999, published 2004)

Assays:
TNF-α secretion in PBMC = assay: LPS induced secretion of TNF-α in PBMC, enzyme immuno assay; format: cell-based, human; conditions: for inhibition of secretion of TNF-α: 30 min preincubation, 1 μg/ml LPS 18 hours
Description: (§1) The mononuclear cells (PBMC) were isolated from human peripheral blood by Lymphoprep® fractionation (Nycomed, Norway) and the THP-1 cells were obtained from the American Type Culture Collection (Accession No. TIB-202). Both cell lines were suspended in RPMI 1640 with 2% fetal calf serum (FCS), 2 mM L-glutamine, 100 U/ml penicillin and […] streptomycin. […] Louis, Mo., USA). […] The levels of IL-1β and TNF-α were measured in the culture supernatant by enzyme immuno assays (monoclonal antibodies were obtained from R & D Systems, Abingdon, UK).

IL-1β secretion in PBMC = assay: LPS induced secretion of IL-1β in PBMC, enzyme immuno assay; format: cell-based, human; conditions: for inhibition of secretion of IL-1β: 30 min preincubation, 1 μg/ml LPS 18 hours
Description: as §1

[1] = test system: TNF-α secretion in THP-1 cells; assay: LPS induced secretion of TNF-α in THP-1 cells, enzyme immuno assay; format: cell-based, human; conditions: for inhibition of secretion of TNF-α: THP-1 cells, 1 μM of each compound, 60 min preincubation, 1 μg/ml LPS 5 hours
Description: as §1

[2] = test system: NFκB transcriptional activity in THP-1 cells; assay: NFκB-luciferase reporter gene assay in LPS stimulated THP-1 cells; format: cell-based, human; conditions: for reporter gene (luciferase) activity, % of the control value: THP-1 cells transfected with pBIIX, 1 μM of each compound, 1 hour pretreatment, 1 μg/ml LPS 5 h
Description: All transfections were performed in triplicate.

[3] = test system: THP-1 or peripheral blood mononuclear cells (PBMC); assay: LPS induced secretion of TNF-α and IL-1β in THP-1 or PBMC (summary statement); format: cell-based, human
Description: as §1

MSK1 = MSK1 (Homo sapiens, UniProt O75582); conditions: from reference (5); cited from earlier work
Chain of MSK1 (O75582 whole entry): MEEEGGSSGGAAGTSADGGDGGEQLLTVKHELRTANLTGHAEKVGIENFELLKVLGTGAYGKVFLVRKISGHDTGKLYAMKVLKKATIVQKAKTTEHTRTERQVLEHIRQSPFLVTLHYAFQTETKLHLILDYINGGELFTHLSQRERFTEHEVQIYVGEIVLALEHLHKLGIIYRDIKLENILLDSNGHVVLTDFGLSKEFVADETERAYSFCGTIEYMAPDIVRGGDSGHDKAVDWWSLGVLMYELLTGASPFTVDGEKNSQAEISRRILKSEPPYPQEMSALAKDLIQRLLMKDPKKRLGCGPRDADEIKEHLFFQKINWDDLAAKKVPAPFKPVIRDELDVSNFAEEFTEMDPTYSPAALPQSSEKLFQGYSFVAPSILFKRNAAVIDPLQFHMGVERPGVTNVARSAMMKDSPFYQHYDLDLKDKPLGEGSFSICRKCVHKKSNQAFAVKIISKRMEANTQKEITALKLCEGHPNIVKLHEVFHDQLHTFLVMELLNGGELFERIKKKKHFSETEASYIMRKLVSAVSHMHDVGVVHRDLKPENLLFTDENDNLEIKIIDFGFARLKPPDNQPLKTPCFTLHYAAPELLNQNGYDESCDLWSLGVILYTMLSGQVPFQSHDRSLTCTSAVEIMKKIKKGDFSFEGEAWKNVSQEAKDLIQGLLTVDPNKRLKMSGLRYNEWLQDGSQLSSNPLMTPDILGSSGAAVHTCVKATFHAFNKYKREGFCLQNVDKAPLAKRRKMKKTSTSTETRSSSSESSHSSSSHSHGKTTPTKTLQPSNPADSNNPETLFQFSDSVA

SMILES | inhibition of secretion of TNF-α (TNF-α secretion in PBMC; 10 μM compound) | inhibition of secretion of IL-1β (IL-1β secretion in PBMC; 10 μM compound) | inhibition of secretion of TNF-α [1] [%] | reporter gene (luciferase) activity, % of the control value [2] | inhibition of secretion of TNF-α (TNF-α secretion in PBMC; 1 μM compound) | inhibition of secretion of IL-1β (IL-1β secretion in PBMC; 1 μM compound) | LPS induced NFκB transcriptional activity ([2]; THP-1 cells, summary statement) | LPS induced secretion of TNF-α and IL-1β [3] | inhibition of MSK1 activity in vitro (MSK1) | inhibition at 1 µM (TNF-α secretion in PBMC; Homo sapiens, read-out: inhibition of secretion of TNF-α) [%] | inhibition at 1 µM (IL-1β secretion in PBMC; Homo sapiens, read-out: inhibition of secretion of IL-1β) [%] | inhibition at 1 µM ([1]; Homo sapiens, THP-1, read-out: inhibition of secretion of TNF-α) [%]
COc1cccc(-c2cc(=O)c3ccccc3o2)c1N [PD98059] | about 40% | about 40% | 5 | no effect | – | – | – | – | – | – | – | –
Cn1cc(C2=C(c3cn(CCCSC(=N)N)c4ccccc34)C(=O)NC2=O)c2ccccc21 [Ro318220] | – | – | 50 | 15% | approximately 90% | approximately 90% | strongly inhibited | strongly inhibited | potent inhibitor | – | – | –
C[S+]([O-])c1ccc(-c2nc(-c3ccncc3)c(-c3ccc(F)cc3)[nH]2)cc1 (stereo not drawn) [SB203580] | – | – | – | 49% | – | – | – | – | – | 40 to 60 | 40 to 60 | 30
